Each block holds one compound with its values, some of them ahead of it.
Assays:
[1] = Singlet oxygen generation and triplet parameters; assay type: physicochemical; details: in ethanol
[2] = system: Jurkat cells; test: Dark toxicity (trypan blue test, apoptotic blebbing); assay type: cell-based; details: 3 μM mTHPC, 1 h, 3 h, 5 h and 24 h incubation in darkness, FIG. 6A
Description: Intracellular uptake and phototoxicity of the present nanoparticles formulation was studied using Jurkat-cell suspensions cultured in RPMI1640 medium. All cells were incubated in 3 μM mTHPC and mTHPC loaded into different concentration of HSA based nanoparticles for set period of time (1 h, 3 h, 5 h, 24 h). The HSA-based nanoparticles of varying HSA concentration was used to determine the intracellular uptake and phototoxicity effect of the cells suspension.
Trypan blue test was used to assess the necrotic cells, apoptotic cells were detected by their change of cell shape (apoptotic blebbing).
In each case Jurkat cells were incubated in five samples. After 1 h, 3 h, 5 h. and 24 h incubation in darkness an aliquot of each sample was investigated. Trypan blue test was used to assess the necrotic cells, apoptotic cells were detected by their change of cell shape (apoptotic blebbing). Little or no effect was found. In other words dark toxicity was not observed for the mTHPC concentrations used.

[3] = Fluorescence lifetime; assay type: physicochemical

ΦΔ (±0.03) (singlet oxygen quantum yield) [1]: 0.75
τT (lifetime of triplet state) [1]: 3.3 ± 0.1 μs
τΔ (lifetime of singlet oxygen) [1]: 64.1 ± 0.2 μs
SMILES: O=C([O-])c1c(Cl)c(Cl)c(Cl)c(Cl)c1-c1c2cc(I)c(=O)c(I)c-2oc2c(I)c([O-])c(I)cc12.[Na+].[Na+] [Rose Bengal]

SMILES: Oc1cccc(-c2c3nc(c(-c4cccc(O)c4)c4ccc([nH]4)c(-c4cccc(O)c4)c4nc(c(-c5cccc(O)c5)c5ccc2[nH]5)CC4)C=C3)c1 [mTHPC, 5,10,15,20-tetrakis(3-hydroxyphenyl)-chlorin]
Dark toxicity [2]: not observed

τ3 [ns] ± 0.2 ([3]; fluorescence lifetime, in EtOH (monomers)): 9.6 ns
Amplitude [%] of τ3 ([3]; in EtOH): 100%
SMILES: Oc1cccc(-c2c3nc(c(-c4cccc(O)c4)c4ccc([nH]4)c(-c4cccc(O)c4)c4nc(c(-c5cccc(O)c5)c5ccc2[nH]5)C=C4)C=C3)c1 [mTHPP, 5,10,15,20-tetrakis(m-hydroxyphenyl)-porphyrin]

— patent US9211283B2, “Nanoparticle carrier systems based on human serum albumin for photodynamic therapy” (Biolitec Pharma Marketing Ltd, priority 2009, dated 2015)
